Experiments:
[1] = tested on: recombinant NL4-3 virus (Renilla luciferase in nef) in MT-2 cells; test: whole plant or invertebrate; type: cell-based, HIV; conditions: luciferase activity
Summary of the method: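 MT-2 cells infected for 4-5 days with NL4-3 reporter virus (Renilla luciferase replacing part of nef, produced by transfection of 293T cells) in the presence of serial compound dilutions. Antiviral activity quantified by luciferase activity read with a live-cell substrate.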

[2] = Compound cytotoxicity, XTT-based colorimetric assay; type: cell-based; conditions: human, uninfected MT2 cells, day 4, XTT
Summary of the method: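 Run under the antiviral-assay protocol but without virus. Viability was read on day 4 and CC50 values were derived from the readout.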

[3] = Renilla, NL43, MT-2 cells infected for 4-5 days with recombinant NL4-3 Renilla luciferase virus

Structure (SMILES) | EC50 [1, 3] | CC50 at 4 days [2] | EC50 ([1]; MT-2 cells infected for 4-5 days with recombinant NL4-3 Renilla luciferase virus)
CCN(C(=O)[C@H](Cc1cc(F)cc(F)c1)NC(=O)NS(=O)(=O)N[C@@H](Cc1cc(F)cc(F)c1)C(=O)N(CC)c1ccc(OC(F)F)cc1)c1ccc(OC(F)F)cc1 [Example 150] | 0.01 µM | 24.6 µM | –
Cc1ccc(N(C)C(=O)[C@H](Cc2cc(F)cc(F)c2)NC(=O)NS(=O)(=O)N[C@@H](Cc2cc(F)cc(F)c2)C(=O)N(C)c2ccc(C)cn2)nc1 [Example 182] | 0.4 µM | 97.9 µM | –
COc1ccc(N(C)C(=O)[C@H](Cc2cc(F)cc(F)c2)NC(=O)Cc2cccc(CC(=O)N[C@@H](Cc3cc(F)cc(F)c3)C(=O)N(C)c3ccc(OC)cc3)c2)cc1 [Example 43] | 0.48 µM | 3.7 µM | –
COc1ccc(N(C)C(=O)[C@H](Cc2ccccc2)NC(=O)N[C@@H](Cc2ccccc2)C(=O)N(C)c2ccc(OC)cc2)cc1 [Example 1] | 2.86 µM | 23.1 µM | –
Cc1ccc(N(C)C(=O)[C@H](Cc2cc(F)cc(F)c2)NC(=O)NS(=O)(=O)N[C@@H](Cc2cc(F)cc(F)c2)C(=O)N(C)c2ccc(C)nc2)cn1 [Example 172] | 0.58 µM | ≥ 100 µM | –
C=CCN(C(=O)[C@H](Cc1cc(F)cc(F)c1)NC(=O)CC(C)(C)CC(=O)N[C@@H](Cc1cc(F)cc(F)c1)C(=O)N(CC=C)c1ccc(OC)cc1)c1ccc(OC)cc1 [Example 171] | 100 µM | ≥ 100 µM | –
CN(C(=O)[C@H](Cc1cc(F)cc(F)c1)NC(=O)N[C@@H](Cc1cc(F)cc(F)c1)C(=O)N(C)c1ccc2scnc2c1)c1ccc2scnc2c1 [Example 221] | 0.52 µM | ≥ 100 µM | –
C=CCN(C(=O)[C@H](Cc1cc(F)cc(F)c1)NC(=O)NS(=O)(=O)N[C@@H](Cc1cc(F)cc(F)c1)C(=O)N(CC=C)c1ccc(OC)nc1)c1ccc(OC)nc1 [Example 194] | 0.58 µM | 41.9 µM | –
COc1ccc(N(C)C(=O)[C@H](Cc2ccccc2)NC(=O)[C@H](C)NC(=O)N[C@@H](C)C(=O)N[C@@H](Cc2ccccc2)C(=O)N(C)c2ccc(OC)cc2)cc1 [Example 104] | 0.13 µM | 31 µM | –
CN(C(=O)[C@H](Cc1cc(F)cc(F)c1)NC(=O)NS(=O)(=O)N[C@@H](Cc1cc(F)cc(F)c1)C(=O)N(C)c1ccc2sc(=O)n(C)c2c1)c1ccc2sc(=O)n(C)c2c1 [Example 237] | 0.27 µM | 71.9 µM | –
COc1ccc(N(C)C(=O)[C@H](Cc2ccccc2)NC(=O)CC(C)(C)CC(=O)N[C@@H](Cc2ccccc2)C(=O)N(C)c2ccc(OC)cc2)cc1 [Example 77] | 3.98 µM | 9.6 µM | –
CN(C(=O)[C@H](Cc1ccccc1)Nc1ncc(-c2cnc(N[C@@H](Cc3ccccc3)C(=O)N(C)c3ccc4scnc4c3)nc2)cn1)c1ccc2scnc2c1 [Example 136] | 0.34 µM | ≥ 100 µM | –
COc1ccc(N(C)C(=O)[C@H](Cc2ccccc2)NC(=O)c2ccnc(C(=O)N[C@@H](Cc3ccccc3)C(=O)N(C)c3ccc(OC)cc3)c2)cc1 [Example 105] | 0.68 µM | 3.1 µM | –
COc1ccc(N(C)C(=O)[C@H](Cc2cc(F)cc(F)c2)NC(=O)Cn2c(=O)n(CC(=O)N[C@@H](Cc3cc(F)cc(F)c3)C(=O)N(C)c3ccc(OC)cc3)c3ccccc32)cc1 [Example 69] | 0.02 µM | 11.8 µM | –
CN(C(=O)[C@H](Cc1cc(F)cc(F)c1)NC(=O)NS(=O)(=O)N[C@@H](Cc1cc(F)cc(F)c1)C(=O)N(C)c1ccc2sc(=O)[nH]c2c1)c1ccc2sc(=O)[nH]c2c1 [Example 175] | 0.45 µM | ≥ 100 µM | –
COc1ccc(-n2ccnc2C(Cc2ccccc2)NC(=O)NS(=O)(=O)N[C@@H](Cc2ccccc2)c2nccn2-c2ccc(OC)cc2)cc1 (stereo partly shown) [Example 159] | 3.68 µM | 86.4 µM | –
CN(C(=O)[C@H](Cc1cc(F)cc(F)c1)NC(=O)NS(=O)(=O)N[C@@H](Cc1cc(F)cc(F)c1)C(=O)N(C)c1ccc2snnc2c1)c1ccc2snnc2c1 [Example 177] | 0.27 µM | 88 µM | –
COc1ccc(N(C)C(=O)[C@H](Cc2ccccc2)NC(=O)Cn2c(=O)n(CC(=O)N[C@@H](Cc3ccccc3)C(=O)N(C)c3ccc(OC)cc3)c3cc(F)ccc32)cc1 [Example 75] | 0.08 µM | 11.5 µM | –
COc1ccc(N(C)C(=O)[C@H](Cc2ccccc2)NC(=O)/C=C\C(=O)N[C@@H](Cc2ccccc2)C(=O)N(C)c2ccc(OC)cc2)cc1 [Example 80] | 0.16 µM | 12.8 µM | –
CN(C(=O)[C@H](Cc1cc(F)cc(F)c1)NC(=O)c1ccc(F)c(C(=O)N[C@@H](Cc2cc(F)cc(F)c2)C(=O)N(C)c2ccc3scnc3c2)c1)c1ccc2scnc2c1 [Example 126] | 0.01 µM | ≥ 100 µM | –
COc1ccc(N(C)C(=O)[C@H](Cc2cc(F)cc(F)c2)NC(=O)Cn2c(=O)c3ccccc3c(=O)n2CC(=O)N[C@@H](Cc2cc(F)cc(F)c2)C(=O)N(C)c2ccc(OC)cc2)cc1 [Example 93] | 0.09 µM | 5.7 µM | –

Structure (SMILES) | EC50 [1, 3] | CC50 at 4 days [2] | EC50 ([1]; MT-2 cells infected for 4-5 days with recombinant NL4-3 Renilla luciferase virus)
C=CCN(C(=O)[C@H](Cc1cc(F)cc(F)c1)NC(=O)c1ccncc1C(=O)N[C@@H](Cc1cc(F)cc(F)c1)C(=O)N(CC=C)c1ccc(OC)cc1)c1ccc(OC)cc1 [Example 211] | 3.92 µM | 14 µM | –
COc1ccc(N(C)C(=O)[C@H](Cc2ccccc2)NC(=O)Cc2cccc(CC(=O)N[C@@H](Cc3ccccc3)C(=O)N(C)c3ccc(OC)cc3)c2)cc1 [Example 42] | 0.85 µM | 40.7 µM | –
COc1ccc(N(C)C(=O)[C@H](Cc2ccccc2)NC(=O)NS(=O)(=O)N[C@H](Cc2ccccc2)C(=O)N(C)c2ccc(OC)cc2)cc1 [Example 11] | 0.47 µM | ≥ 33.3 µM | –
COc1ccc(N(C)C(=O)[C@H](Cc2ccccc2)NC(=O)Cn2c(=O)n(CC(=O)N[C@@H](Cc3ccccc3)C(=O)N(C)c3ccc(OC)cc3)c3ccccc32)cc1 [Example 37] | 0.07 µM | 19.9 µM | –
COc1ccc(N(C)C(=O)[C@H](Cc2ccccc2)NC(=O)NS(=O)(=O)N[C@@H](Cc2ccccc2)C(=O)N2CCCC2)cc1 [Example 8] | 2.04 µM | ≥ 33.3 µM | –
CN(C(=O)[C@H](Cc1cc(F)cc(F)c1)NC(=O)NS(=O)(=O)N[C@@H](Cc1cc(F)cc(F)c1)C(=O)N(C)c1ccc(C2CC2)cc1)c1ccc(C2CC2)cc1 [Example 198] | 0.01 µM | 12.5 µM | –
CCN(C(=O)[C@H](Cc1cc(F)cc(F)c1)NC(=O)CN1c2ccccc2N(CC(=O)N[C@@H](Cc2cc(F)cc(F)c2)C(=O)N(CC)c2ccc(NC(=O)OC)cc2)S1(=O)=O)c1ccc(NC(=O)OC)cc1 [Example 148] | 0.72 µM | ≥ 100 µM | –
Cc1ccc(N(C)C(=O)[C@H](Cc2cc(F)cc(F)c2)NC(=O)c2ccc(F)c(C(=O)N[C@@H](Cc3cc(F)cc(F)c3)C(=O)N(C)c3ccc(C)nc3)c2)cn1 [Example 184] | 0.19 µM | 11.1 µM | –
COc1ccc(N(C)C(=O)[C@H](Cc2ccccc2)NC(=O)C2CCCCC2C(=O)N[C@@H](Cc2ccccc2)C(=O)N(C)c2ccc(OC)cc2)cc1 (mixture of isomers) [Example 53] | 0.34 µM | ≥ 33.3 µM | –
CN(C(=O)[C@H](Cc1cc(F)cc(F)c1)NC(=O)CN1c2ccccc2N(CC(=O)N[C@@H](Cc2cc(F)cc(F)c2)C(=O)N(C)c2ccc3sncc3c2)S1(=O)=O)c1ccc2sncc2c1 [Example 160] | 0.02 µM | ≥ 100 µM | –
COc1ccc(-n2ccnc2[C@H](Cc2ccccc2)NC(=O)c2cccc(C(=O)N[C@@H](Cc3ccccc3)c3nccn3-c3ccc(OC)cc3)c2)cc1 [Example 161] | 2.8 µM | 73.9 µM | –
COc1ccc(N(C)C(=O)[C@H](Cc2ccccc2)NC(=O)Cn2c(=O)n(CC(=O)N[C@@H](Cc3ccccc3)C(=O)N(C)c3ccc(OC)cc3)c3cc(OC)ccc32)cc1 [Example 83] | 0.09 µM | 6.2 µM | –
Cc1nc2cc(N(C)C(=O)[C@H](Cc3cc(F)cc(F)c3)NC(=O)NS(=O)(=O)N[C@@H](Cc3cc(F)cc(F)c3)C(=O)N(C)c3ccc4sc(C)nc4c3)ccc2s1 [Example 151] | 0.19 µM | 33.4 µM | –
Cc1cc(F)cc(N(C)C(=O)[C@H](Cc2ccccc2)NC(=O)NS(=O)(=O)N[C@@H](Cc2ccccc2)C(=O)N(C)c2cc(C)cc(F)c2)c1 [Example 224] | 3.91 µM | 46 µM | –
COc1ccc(N(C)C(=O)[C@H](Cc2cc(F)cc(F)c2)NC(=O)C(C)n2c(=O)n(C(C)C(=O)N[C@@H](Cc3cc(F)cc(F)c3)C(=O)N(C)c3ccc(OC)cc3)c3ccccc32)cc1 (single isomer, unassigned) [Example 132] | – | 7.3 µM | 1.94 µM
C=CCN(C(=O)[C@H](Cc1cc(F)cc(F)c1)NC(=O)c1ccc(F)c(C(=O)N[C@@H](Cc2cc(F)cc(F)c2)C(=O)N(CC=C)c2ccc(OC)cc2)c1)c1ccc(OC)cc1 [Example 139] | 0.04 µM | ≥ 33.3 µM | –
C=CCN(C(=O)[C@H](Cc1cc(F)cc(F)c1)NC(=O)NS(=O)(=O)N[C@@H](Cc1cc(F)cc(F)c1)C(=O)N(CC=C)c1ccc2nccnc2c1)c1ccc2nccnc2c1 [Example 213] | 8.21 µM | ≥ 100 µM | –
COc1ccc(N(C)C(=O)[C@H](Cc2ccccc2)NC(=O)Cn2c(=O)n(CC(=O)N[C@@H](Cc3ccccc3)C(=O)N(C)c3ccc(OC)cc3)c3cc(Cl)ccc32)cc1 [Example 71] | 0.08 µM | 6.5 µM | –
COc1ccc(N(C)C(=O)[C@H](Cc2ccccc2)NC(=O)Cn2c(=O)c3ccccc3c(=O)n2CC(=O)N[C@@H](Cc2ccccc2)C(=O)N(C)c2ccc(OC)cc2)cc1 [Example 92] | 0.29 µM | 10.1 µM | –
Cc1ncc(N(C)C(=O)[C@H](Cc2cc(F)cc(F)c2)NC(=O)NS(=O)(=O)N[C@@H](Cc2cc(F)cc(F)c2)C(=O)N(C)c2cnc(C)nc2)cn1 [Example 207] | 25 µM | ≥ 25 µM | –

From patent US20180072997A1, “INHIBITORS OF HUMAN IMMUNODEFICIENCY VIRUS REPLICATION” (ViiV HEATHCARE UK (NO.5) LIMITED, priority 2015, published 2018)
